Results from US5268462A, “Oleandomycin oximes” (Pliva Farmaceutska, priority 1990, dated 1993).
Converted amounts (≈) assume the structure as drawn.

Legend:
Assay type in all cases: cell-based
Staph. aureus 10097 = experiment: Antibacterial in vitro activity (MIC), clinical isolate; conditions: Staphylococcus aureus; Staph. aureus 10097, clinical isolate; read-out: Minimal Inhibitory Concentration (MIC)
From the text: (§1) The antibacterial in vitro activity was evidenced on a series of standard and clinically isolated strains. The results are expressed as Minimal Inhibitory Concentration (MIC; μg/mL) and represented hereinbelow in Tables 1 and 2.

Strept. pneumoniae 4050 = experiment: as above; conditions: Streptococcus pneumoniae; Strept. pneumoniae 4050, clinical isolate; read-out: Minimal Inhibitory Concentration (MIC)
From the text: as §1

H. Influenze 4028 = experiment: as above; conditions: H. Influenze 4028, clinical isolate; read-out: Minimal Inhibitory Concentration (MIC)
From the text: as §1

Staph. saprophyt. 3947 = experiment: as above; conditions: Staph. saprophyt. 3947, clinical isolate; read-out: Minimal Inhibitory Concentration (MIC)
From the text: as §1

Strept. faecalis 10390 = experiment: as above; conditions: Enterococcus faecalis; Strept. faecalis 10390, clinical isolate; read-out: Minimal Inhibitory Concentration (MIC)
From the text: as §1

Staph. aureus 10099 = experiment: as above; conditions: Staphylococcus aureus; Staph. aureus 10099, clinical isolate; read-out: Minimal Inhibitory Concentration (MIC)
From the text: as §1

Sarcina lutea ATCC 9341 = experiment: Activity on Sarcina lutea ATCC 9341
E. coli ATCC 10536 = experiment: Antibacterial in vitro activity (MIC), standard strain; conditions: Escherichia coli, ATCC10536; E. coli ATCC 10536, standard strain; read-out: Minimal Inhibitory Concentration (MIC)
From the text: as §1

Sarcina lutea ATCC-9341 = experiment: as above; conditions: Micrococcus luteus, ATCC9341; Sarcina lutea ATCC-9341, standard strain; read-out: Minimal Inhibitory Concentration (MIC)
From the text: as §1

[1] = test system: Strept. faecalis ATCC-8043; experiment: as above; conditions: Enterococcus faecalis, ATCC8043; Strept. faecalis ATCC-8043, standard strain; read-out: Minimal Inhibitory Concentration (MIC)
From the text: as §1

Pseud. aerug. NCTC-10490 = experiment: as above; conditions: Pseud. aerug. NCTC-10490, standard strain; read-out: Minimal Inhibitory Concentration (MIC)
From the text: as §1

[2] = test system: Staph. aureus ATCC 6538-P; experiment: as above; conditions: Staphylococcus aureus, ATCC6538, read-out: Minimal Inhibitory Concentration (MIC)
From the text: as §1

[3] = test system: Klebsiella pneum. NCTC-10499; experiment: as above; conditions: NCTC10499; Klebsiella pneum. NCTC-10499, standard strain; read-out: Minimal Inhibitory Concentration (MIC)
From the text: as §1

Strept. pneumoniae = experiment: MIC (clinical isolates), Examples 1-3; conditions: Streptococcus pneumoniae
From the text: as §1

Strept. serol. group A = experiment: MIC (clinical isolates), Examples 1-3
From the text: as §1

| MIC (Staph. aureus 10097) [µg/mL] | MIC (Strept. pneumoniae 4050) [µg/mL] | MIC (H. Influenze 4028) [µg/mL] | MIC (Staph. saprophyt. 3947) [µg/mL] | MIC (Strept. faecalis 10390) [µg/mL] | MIC (Staph. aureus 10099) [µg/mL] | MIC (E. coli ATCC 10536) [µg/mL] | MIC (Sarcina lutea ATCC-9341) [µg/mL] | MIC [1] [µg/mL] | MIC (Pseud. aerug. NCTC-10490) [µg/mL] | MIC [2] [µg/mL] | MIC [3] [µg/mL] | MIC (Strept. pneumoniae) [µg/mL] | MIC (Strept. serol. group A) [µg/mL] | SMILES | Activity (Sarcina lutea ATCC 9341) [u/mg] |
| --- | --- | --- | --- | --- | --- | --- | --- | --- | --- | --- | --- | --- | --- | --- | --- |
| 0.4 (≈ 0.581 µM) | 0.4 (≈ 0.581 µM) | 0.4 (≈ 0.581 µM) | 1.6 (≈ 2.32 µM) | 0.8 (≈ 1.16 µM) | 0.4 (≈ 0.581 µM) | 6.2 (≈ 9 µM) | 0.2 (≈ 0.29 µM) | 0.2 (≈ 0.29 µM) | 50 (≈ 72.6 µM) | 0.2 (≈ 0.29 µM) | 50 (≈ 72.6 µM) |  |  | COC1CC(OC2C(C)C(=O)OC(C)C(C)C(O)C(C)C(=NO)C(C)CC(C)C(OC3OC(C)CC(N(C)C)C3O)C2C)OC(C)C1O (single isomer, unassigned) [Ie, 8-methyl-oleandomycin oxime] | 657 |
|  |  |  |  |  |  |  |  |  |  |  |  | 0.5 (≈ 0.711 µM) | 0.5 (≈ 0.711 µM) | COC1CC(OC2C(C)C(=O)OC(C)C(C)C(O)C(C)C(=NO)C3(CO3)CC(C)C(OC3OC(C)CC(N(C)C)C3O)C2C)OC(C)C1O (stereo not drawn) [Ia, OLEANDOMYCIN OXIME] |  |
|  |  |  |  |  |  |  |  |  |  |  |  | 2 (≈ 2.92 µM) | 1 (≈ 1.46 µM) | COC1CC(OC2C(C)C(=O)OC(C)C(C)C=C(C)C(=NO)C3(CO3)CC(C)C(OC3OC(C)CC(N(C)C)C3O)C2C)OC(C)C1O (stereo not drawn) [Ib, ANHYDRO OLEANDOMYCIN OXIME] |  |
|  |  |  |  |  |  |  |  |  |  |  |  | 1 (≈ 1.46 µM) | 1 (≈ 1.46 µM) | C=C1CC(C)C(OC2OC(C)CC(N(C)C)C2O)C(C)C(OC2CC(OC)C(O)C(C)O2)C(C)C(=O)OC(C)C(C)C(O)C(C)C1=NO (stereo not drawn) [Ic, 8-METHYLENE-OLEANDOMYCIN OXIME] |  |
| 0.8 | 1.6 |  | 1.6 | 3.1 | 0.8 | 25 | 0.2 | 0.8 | > 50 | 0.4 | > 50 |  |  | CO[C@H]1C[C@H](O[C@H]2[C@H](C)[C@@H](O[C@@H]3O[C@H](C)C[C@H](N(C)C)[C@H]3O)[C@@H](C)C[C@@]3(CO3)C(=O)[C@H](C)[C@@H](O)[C@@H](C)[C@@H](C)OC(=O)[C@@H]2C)O[C@@H](C)[C@@H]1O [oleandomycin phosphate, reference compound] |  |
